{"source": "paper PMC7181660", "about": "“A novel specific PERK activator reduces toxicity and extends survival in Huntington's disease models” (Scientific Reports, 2020)", "experiment_in_all_cases": "biochemical", "format_in_all_cases": "biochemical", "key": {"panel of 391 kinases [1]": {"target": "panel of 391 kinases (Homo sapiens, UniProt O75460)", "conditions": "ERN1/IRE1, MK-28 1 µM, ATP 1 µM"}, "panel of 391 kinases [2]": {"target": "panel of 391 kinases (Homo sapiens, UniProt O75716)", "conditions": "STK16, MK-28 1 µM, ATP 1 µM"}, "panel of 391 kinases [3]": {"target": "panel of 391 kinases (Homo sapiens, UniProt P07333)", "conditions": "FMS, MK-28 1 µM, ATP 1 µM"}, "panel of 391 kinases [4]": {"target": "panel of 391 kinases (Homo sapiens, UniProt P07949)", "sequence (P07949 29-1114)": "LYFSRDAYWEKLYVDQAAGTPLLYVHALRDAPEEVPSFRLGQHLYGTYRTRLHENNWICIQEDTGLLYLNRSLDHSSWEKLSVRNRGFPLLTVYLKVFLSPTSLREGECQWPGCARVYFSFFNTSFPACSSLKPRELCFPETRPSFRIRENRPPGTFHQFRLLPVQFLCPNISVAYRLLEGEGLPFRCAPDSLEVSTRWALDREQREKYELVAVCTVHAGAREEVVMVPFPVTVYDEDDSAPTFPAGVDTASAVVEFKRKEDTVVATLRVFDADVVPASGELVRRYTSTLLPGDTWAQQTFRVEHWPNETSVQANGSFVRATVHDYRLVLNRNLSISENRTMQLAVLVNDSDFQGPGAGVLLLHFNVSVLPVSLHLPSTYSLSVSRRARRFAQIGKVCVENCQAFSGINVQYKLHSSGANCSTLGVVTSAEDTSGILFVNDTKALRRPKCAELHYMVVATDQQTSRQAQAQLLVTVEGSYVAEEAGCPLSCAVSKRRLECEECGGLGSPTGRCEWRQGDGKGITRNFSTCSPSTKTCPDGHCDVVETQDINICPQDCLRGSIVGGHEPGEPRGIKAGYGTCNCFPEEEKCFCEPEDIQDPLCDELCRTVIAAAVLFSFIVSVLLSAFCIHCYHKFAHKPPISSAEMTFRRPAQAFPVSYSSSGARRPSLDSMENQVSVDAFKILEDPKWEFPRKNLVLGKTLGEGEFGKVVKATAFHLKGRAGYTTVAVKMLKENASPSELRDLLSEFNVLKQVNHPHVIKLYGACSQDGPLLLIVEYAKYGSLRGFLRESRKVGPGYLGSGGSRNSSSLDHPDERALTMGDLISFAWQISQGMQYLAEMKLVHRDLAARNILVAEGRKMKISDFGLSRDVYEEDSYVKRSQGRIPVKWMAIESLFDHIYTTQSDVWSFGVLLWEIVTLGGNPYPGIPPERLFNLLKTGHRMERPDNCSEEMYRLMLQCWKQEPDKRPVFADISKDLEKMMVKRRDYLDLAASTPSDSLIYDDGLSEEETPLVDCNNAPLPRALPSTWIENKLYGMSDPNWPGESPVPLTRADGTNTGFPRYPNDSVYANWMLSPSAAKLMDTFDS", "conditions": "RET, MK-28 1 µM, ATP 1 µM"}, "panel of 391 kinases [5]": {"target": "panel of 391 kinases (Homo sapiens, UniProt P17612)", "conditions": "PKA, MK-28 1 µM, ATP 1 µM"}, "panel of 391 kinases [6]": {"target": "panel of 391 kinases (Homo sapiens, UniProt P21802)", "conditions": "FGFR2, MK-28 1 µM, ATP 1 µM"}, "panel of 391 kinases [7]": {"target": "panel of 391 kinases (Homo sapiens, UniProt P22694)", "conditions": "PKAcb, MK-28 1 µM, ATP 1 µM"}, "panel of 391 kinases [8]": {"target": "panel of 391 kinases (Homo sapiens, UniProt P24723)", "conditions": "PKCeta, MK-28 1 µM, ATP 1 µM"}, "panel of 391 kinases [9]": {"target": "panel of 391 kinases (Homo sapiens, UniProt P36888)", "conditions": "FLT3, MK-28 1 µM, ATP 1 µM"}, "panel of 391 kinases [10]": {"target": "panel of 391 kinases (Homo sapiens, UniProt P41240)", "sequence (P41240 whole entry)": "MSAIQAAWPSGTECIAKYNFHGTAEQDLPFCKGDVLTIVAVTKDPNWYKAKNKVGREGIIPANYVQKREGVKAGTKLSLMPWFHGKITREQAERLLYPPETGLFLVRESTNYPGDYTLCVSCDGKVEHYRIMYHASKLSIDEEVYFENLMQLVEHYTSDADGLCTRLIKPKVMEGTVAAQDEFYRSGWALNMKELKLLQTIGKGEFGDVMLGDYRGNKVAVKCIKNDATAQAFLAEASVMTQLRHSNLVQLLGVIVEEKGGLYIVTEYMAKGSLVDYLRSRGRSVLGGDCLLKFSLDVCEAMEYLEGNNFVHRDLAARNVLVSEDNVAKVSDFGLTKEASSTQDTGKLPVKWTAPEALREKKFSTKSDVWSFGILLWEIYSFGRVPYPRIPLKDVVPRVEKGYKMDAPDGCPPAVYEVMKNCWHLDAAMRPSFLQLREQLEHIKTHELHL", "conditions": "CSK, MK-28 1 µM, ATP 1 µM"}, "panel of 391 kinases [11]": {"target": "panel of 391 kinases (Homo sapiens, UniProt P43405)", "conditions": "SYK, MK-28 1 µM, ATP 1 µM"}, "panel of 391 kinases [12]": {"target": "panel of 391 kinases (Homo sapiens, UniProt P48730)", "sequence (P48730 whole entry)": "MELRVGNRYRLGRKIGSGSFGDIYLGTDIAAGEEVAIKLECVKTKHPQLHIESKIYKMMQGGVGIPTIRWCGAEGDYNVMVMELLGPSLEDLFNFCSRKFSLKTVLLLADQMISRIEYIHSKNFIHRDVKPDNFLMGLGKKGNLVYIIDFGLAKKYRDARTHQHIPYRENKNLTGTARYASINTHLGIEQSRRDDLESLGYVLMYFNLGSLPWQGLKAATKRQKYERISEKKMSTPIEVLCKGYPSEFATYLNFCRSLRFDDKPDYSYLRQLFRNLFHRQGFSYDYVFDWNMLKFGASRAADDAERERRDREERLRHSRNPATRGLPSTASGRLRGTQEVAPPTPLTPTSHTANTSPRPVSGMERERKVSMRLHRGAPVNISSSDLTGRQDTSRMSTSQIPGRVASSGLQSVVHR", "conditions": "CK1d, MK-28 1 µM, ATP 1 µM"}, "panel of 391 kinases [13]": {"target": "panel of 391 kinases (Homo sapiens, UniProt P51617)", "conditions": "IRAK1, MK-28 1 µM, ATP 1 µM"}, "panel of 391 kinases [14]": {"target": "panel of 391 kinases (Homo sapiens, UniProt P78368)", "conditions": "CK1g2, MK-28 1 µM, ATP 1 µM"}, "panel of 391 kinases [15]": {"target": "panel of 391 kinases (Homo sapiens, UniProt Q00537)", "conditions": "CDK17/cyclin Y (PCTK2), MK-28 1 µM, ATP 1 µM"}, "panel of 391 kinases [16]": {"target": "panel of 391 kinases (Homo sapiens, UniProt Q05397)", "conditions": "FAK/PTK2, MK-28 1 µM, ATP 1 µM"}, "panel of 391 kinases [17]": {"target": "panel of 391 kinases (Homo sapiens, UniProt Q16539)", "conditions": "P38a/MAPK14, MK-28 1 µM, ATP 1 µM"}, "panel of 391 kinases [18]": {"target": "panel of 391 kinases (Homo sapiens, UniProt Q5VT25)", "sequence (Q5VT25 whole entry)": "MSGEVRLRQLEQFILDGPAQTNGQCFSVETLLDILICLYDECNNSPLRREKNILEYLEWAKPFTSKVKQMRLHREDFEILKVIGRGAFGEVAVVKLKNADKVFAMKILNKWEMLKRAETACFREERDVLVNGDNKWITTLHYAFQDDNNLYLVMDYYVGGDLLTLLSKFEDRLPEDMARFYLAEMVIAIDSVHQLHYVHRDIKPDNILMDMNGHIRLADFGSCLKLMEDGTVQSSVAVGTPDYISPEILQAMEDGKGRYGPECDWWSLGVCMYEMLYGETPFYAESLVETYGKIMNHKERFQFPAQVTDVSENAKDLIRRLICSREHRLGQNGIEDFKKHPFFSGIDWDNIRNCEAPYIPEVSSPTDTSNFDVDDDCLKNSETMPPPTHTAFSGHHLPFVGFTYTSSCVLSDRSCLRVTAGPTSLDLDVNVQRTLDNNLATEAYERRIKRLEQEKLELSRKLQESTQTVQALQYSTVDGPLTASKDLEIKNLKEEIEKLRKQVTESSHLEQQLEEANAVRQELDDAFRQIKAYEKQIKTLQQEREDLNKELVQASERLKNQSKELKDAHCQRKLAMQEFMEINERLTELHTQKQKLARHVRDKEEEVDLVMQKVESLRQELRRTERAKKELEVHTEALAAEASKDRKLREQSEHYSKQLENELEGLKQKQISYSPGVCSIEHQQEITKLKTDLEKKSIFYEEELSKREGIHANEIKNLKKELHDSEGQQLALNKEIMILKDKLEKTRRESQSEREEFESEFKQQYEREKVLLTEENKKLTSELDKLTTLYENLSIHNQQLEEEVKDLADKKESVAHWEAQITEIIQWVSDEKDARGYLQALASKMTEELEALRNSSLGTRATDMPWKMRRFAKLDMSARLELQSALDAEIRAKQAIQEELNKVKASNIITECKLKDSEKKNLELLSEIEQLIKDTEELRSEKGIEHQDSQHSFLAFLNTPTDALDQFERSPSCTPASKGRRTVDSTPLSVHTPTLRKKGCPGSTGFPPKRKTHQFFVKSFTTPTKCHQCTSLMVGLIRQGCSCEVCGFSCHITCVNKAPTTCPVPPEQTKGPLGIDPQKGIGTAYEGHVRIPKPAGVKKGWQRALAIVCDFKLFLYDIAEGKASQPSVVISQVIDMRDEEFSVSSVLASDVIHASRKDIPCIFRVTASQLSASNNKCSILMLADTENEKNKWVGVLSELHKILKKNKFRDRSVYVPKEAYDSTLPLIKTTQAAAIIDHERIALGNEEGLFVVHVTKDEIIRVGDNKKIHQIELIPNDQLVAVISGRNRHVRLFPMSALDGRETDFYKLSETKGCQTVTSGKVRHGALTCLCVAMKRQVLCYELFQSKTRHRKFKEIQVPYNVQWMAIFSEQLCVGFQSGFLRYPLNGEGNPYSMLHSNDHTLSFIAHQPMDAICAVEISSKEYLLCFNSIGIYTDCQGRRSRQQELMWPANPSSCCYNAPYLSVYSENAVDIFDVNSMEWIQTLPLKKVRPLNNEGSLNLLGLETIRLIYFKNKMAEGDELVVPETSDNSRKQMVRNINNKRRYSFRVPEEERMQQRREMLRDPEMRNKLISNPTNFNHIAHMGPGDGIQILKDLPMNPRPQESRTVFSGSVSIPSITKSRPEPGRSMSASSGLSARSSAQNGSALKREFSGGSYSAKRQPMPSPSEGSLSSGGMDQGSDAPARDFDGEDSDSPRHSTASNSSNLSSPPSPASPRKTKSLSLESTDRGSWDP", "conditions": "MRCKa/CDC42BPA, MK-28 1 µM, ATP 1 µM"}, "panel of 391 kinases [19]": {"target": "panel of 391 kinases (Homo sapiens, UniProt Q8N752)", "conditions": "CK1a1L, MK-28 1 µM, ATP 1 µM"}, "panel of 391 kinases [20]": {"target": "panel of 391 kinases (Homo sapiens, UniProt Q8NEV4)", "conditions": "MYO3A, MK-28 1 µM, ATP 1 µM"}, "panel of 391 kinases [21]": {"target": "panel of 391 kinases (Homo sapiens, UniProt Q8TDX7)", "conditions": "NEK7, MK-28 1 µM, ATP 1 µM"}, "panel of 391 kinases [22]": {"target": "panel of 391 kinases (Homo sapiens, UniProt Q96S53)", "conditions": "TESK2, MK-28 1 µM, ATP 1 µM"}, "panel of 391 kinases [23]": {"target": "panel of 391 kinases (Homo sapiens, UniProt Q99683)", "conditions": "ASK1/MAP3K5, MK-28 1 µM, ATP 1 µM"}, "panel of 391 kinases [24]": {"target": "panel of 391 kinases (Homo sapiens, UniProt Q9HAZ1)", "conditions": "CLK4, MK-28 1 µM, ATP 1 µM"}, "panel of 391 kinases [25]": {"target": "panel of 391 kinases (Homo sapiens, UniProt Q9UEW8)", "conditions": "STK39/STLK3, MK-28 1 µM, ATP 1 µM"}, "panel of 391 kinases [26]": {"target": "panel of 391 kinases (Homo sapiens, UniProt Q9Y2K2)", "sequence (Q9Y2K2 whole entry)": "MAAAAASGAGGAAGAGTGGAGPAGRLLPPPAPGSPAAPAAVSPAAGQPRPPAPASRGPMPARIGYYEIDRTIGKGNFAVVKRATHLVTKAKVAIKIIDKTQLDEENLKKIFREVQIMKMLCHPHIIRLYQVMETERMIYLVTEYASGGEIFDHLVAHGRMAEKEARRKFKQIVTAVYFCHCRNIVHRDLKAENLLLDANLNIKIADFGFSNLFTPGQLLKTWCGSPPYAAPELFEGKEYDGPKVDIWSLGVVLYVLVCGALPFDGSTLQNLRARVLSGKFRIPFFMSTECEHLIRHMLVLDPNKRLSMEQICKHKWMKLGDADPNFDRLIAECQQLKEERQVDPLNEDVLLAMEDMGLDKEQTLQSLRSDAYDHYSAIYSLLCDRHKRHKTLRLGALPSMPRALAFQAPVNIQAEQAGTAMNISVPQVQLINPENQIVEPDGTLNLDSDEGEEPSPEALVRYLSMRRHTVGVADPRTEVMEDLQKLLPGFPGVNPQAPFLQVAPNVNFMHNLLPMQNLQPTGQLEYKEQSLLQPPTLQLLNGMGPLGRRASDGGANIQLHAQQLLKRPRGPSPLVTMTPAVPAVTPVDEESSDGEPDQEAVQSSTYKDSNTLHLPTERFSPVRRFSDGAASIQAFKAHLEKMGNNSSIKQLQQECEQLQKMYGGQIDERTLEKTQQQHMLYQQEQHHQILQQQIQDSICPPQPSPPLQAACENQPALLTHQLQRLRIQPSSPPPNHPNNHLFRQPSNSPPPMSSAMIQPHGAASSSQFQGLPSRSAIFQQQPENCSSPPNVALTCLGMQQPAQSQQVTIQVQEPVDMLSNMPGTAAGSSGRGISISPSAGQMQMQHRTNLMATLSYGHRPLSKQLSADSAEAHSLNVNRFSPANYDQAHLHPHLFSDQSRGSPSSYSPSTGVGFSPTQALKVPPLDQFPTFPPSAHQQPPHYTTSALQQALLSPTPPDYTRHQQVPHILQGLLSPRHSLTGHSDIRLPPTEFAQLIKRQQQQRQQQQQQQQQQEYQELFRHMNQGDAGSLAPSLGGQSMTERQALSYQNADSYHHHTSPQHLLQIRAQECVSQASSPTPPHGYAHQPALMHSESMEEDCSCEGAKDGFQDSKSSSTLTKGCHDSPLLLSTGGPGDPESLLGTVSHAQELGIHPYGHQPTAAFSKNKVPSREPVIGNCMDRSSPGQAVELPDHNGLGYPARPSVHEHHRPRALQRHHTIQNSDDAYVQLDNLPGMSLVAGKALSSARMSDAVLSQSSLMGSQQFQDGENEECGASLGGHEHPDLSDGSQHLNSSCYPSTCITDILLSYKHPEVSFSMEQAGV", "conditions": "SIK3, MK-28 1 µM, ATP 1 µM"}, "panel of 391 kinases [27]": {"target": "panel of 391 kinases (Homo sapiens, UniProt Q9Y3S1)", "conditions": "WNK2, MK-28 1 µM, ATP 1 µM"}, "[28]": {"conditions": "read-out: % Enzyme Activity (relative to DMSO controls)"}}, "data": [{"molecule": "CN(/N=C\\c1ccc(O)c(O)c1)c1nc(-c2ccccc2)cc(-c2ccccc2)n1", "note": "[MK-28]", "values": [{"measurement": "% Enzyme Activity (relative to DMSO controls)", "setting": "panel of 391 kinases [1]", "result": 104.22, "unit": "%"}, {"measurement": "remaining activity at 1 µM", "setting": "panel of 391 kinases [1]; [28]", "result": 105, "unit": "%"}, {"measurement": "% Enzyme Activity (relative to DMSO controls)", "setting": "panel of 391 kinases [2]", "result": 108.93, "unit": "%"}, {"measurement": "remaining activity at 1 µM", "setting": "panel of 391 kinases [2]; [28]", "result": 109, "unit": "%"}, {"measurement": "% Enzyme Activity (relative to DMSO controls)", "setting": "panel of 391 kinases [3]", "result": 101.26, "unit": "%"}, {"measurement": "remaining activity at 1 µM", "setting": "panel of 391 kinases [3]; [28]", "result": 102, "unit": "%"}, {"measurement": "% Enzyme Activity (relative to DMSO controls)", "setting": "panel of 391 kinases [4]", "result": 98.07, "unit": "%"}, {"measurement": "remaining activity at 1 µM", "setting": "panel of 391 kinases [4]; [28]", "result": 99.2, "unit": "%"}, {"measurement": "% Enzyme Activity (relative to DMSO controls)", "setting": "panel of 391 kinases [5]", "result": 91.97, "unit": "%"}, {"measurement": "remaining activity at 1 µM", "setting": "panel of 391 kinases [5]; [28]", "result": 93, "unit": "%"}, {"measurement": "% Enzyme Activity (relative to DMSO controls)", "setting": "panel of 391 kinases [6]", "result": 102.46, "unit": "%"}, {"measurement": "remaining activity at 1 µM", "setting": "panel of 391 kinases [6]; [28]", "result": 103, "unit": "%"}, {"measurement": "% Enzyme Activity (relative to DMSO controls)", "setting": "panel of 391 kinases [7]", "result": 95.23, "unit": "%"}, {"measurement": "remaining activity at 1 µM", "setting": "panel of 391 kinases [7]; [28]", "result": 99.2, "unit": "%"}, {"measurement": "% Enzyme Activity (relative to DMSO controls)", "setting": "panel of 391 kinases [8]", "result": 98.39, "unit": "%"}, {"measurement": "remaining activity at 1 µM", "setting": "panel of 391 kinases [8]; [28]", "result": 101, "unit": "%"}, {"measurement": "% Enzyme Activity (relative to DMSO controls)", "setting": "panel of 391 kinases [9]", "result": 95.61, "unit": "%"}, {"measurement": "remaining activity at 1 µM", "setting": "panel of 391 kinases [9]; [28]", "result": 95.6, "unit": "%"}, {"measurement": "% Enzyme Activity (relative to DMSO controls)", "setting": "panel of 391 kinases [10]", "result": 96.35, "unit": "%"}, {"measurement": "remaining activity at 1 µM", "setting": "panel of 391 kinases [10]; [28]", "result": 96.9, "unit": "%"}, {"measurement": "% Enzyme Activity (relative to DMSO controls)", "setting": "panel of 391 kinases [11]", "result": 91.75, "unit": "%"}, {"measurement": "remaining activity at 1 µM", "setting": "panel of 391 kinases [11]; [28]", "result": 93, "unit": "%"}, {"measurement": "% Enzyme Activity (relative to DMSO controls)", "setting": "panel of 391 kinases [12]", "result": 95.42, "unit": "%"}, {"measurement": "remaining activity at 1 µM", "setting": "panel of 391 kinases [12]; [28]", "result": 99.5, "unit": "%"}, {"measurement": "% Enzyme Activity (relative to DMSO controls)", "setting": "panel of 391 kinases [13]", "result": 84.75, "unit": "%"}, {"measurement": "remaining activity at 1 µM", "setting": "panel of 391 kinases [13]; [28]", "result": 88.3, "unit": "%"}, {"measurement": "% Enzyme Activity (relative to DMSO controls)", "setting": "panel of 391 kinases [14]", "result": 83.33, "unit": "%"}, {"measurement": "remaining activity at 1 µM", "setting": "panel of 391 kinases [14]; [28]", "result": 87, "unit": "%"}, {"measurement": "% Enzyme Activity (relative to DMSO controls)", "setting": "panel of 391 kinases [15]", "result": 104.03, "unit": "%"}, {"measurement": "remaining activity at 1 µM", "setting": "panel of 391 kinases [15]; [28]", "result": 109, "unit": "%"}, {"measurement": "% Enzyme Activity (relative to DMSO controls)", "setting": "panel of 391 kinases [16]", "result": 97.96, "unit": "%"}, {"measurement": "remaining activity at 1 µM", "setting": "panel of 391 kinases [16]; [28]", "result": 98.1, "unit": "%"}, {"measurement": "% Enzyme Activity (relative to DMSO controls)", "setting": "panel of 391 kinases [17]", "result": 98.53, "unit": "%"}, {"measurement": "remaining activity at 1 µM", "setting": "panel of 391 kinases [17]; [28]", "result": 100, "unit": "%"}, {"measurement": "% Enzyme Activity (relative to DMSO controls)", "setting": "panel of 391 kinases [18]", "result": 93.74, "unit": "%"}, {"measurement": "remaining activity at 1 µM", "setting": "panel of 391 kinases [18]; [28]", "result": 95.3, "unit": "%"}, {"measurement": "% Enzyme Activity (relative to DMSO controls)", "setting": "panel of 391 kinases [19]", "result": 99.36, "unit": "%"}, {"measurement": "remaining activity at 1 µM", "setting": "panel of 391 kinases [19]; [28]", "result": 100, "unit": "%"}, {"measurement": "% Enzyme Activity (relative to DMSO controls)", "setting": "panel of 391 kinases [20]", "result": 104.11, "unit": "%"}, {"measurement": "remaining activity at 1 µM", "setting": "panel of 391 kinases [20]; [28]", "result": 104, "unit": "%"}, {"measurement": "% Enzyme Activity (relative to DMSO controls)", "setting": "panel of 391 kinases [21]", "result": 97.32, "unit": "%"}, {"measurement": "remaining activity at 1 µM", "setting": "panel of 391 kinases [21]; [28]", "result": 98.3, "unit": "%"}, {"measurement": "% Enzyme Activity (relative to DMSO controls)", "setting": "panel of 391 kinases [22]", "result": 99.48, "unit": "%"}, {"measurement": "remaining activity at 1 µM", "setting": "panel of 391 kinases [22]; [28]", "result": 101, "unit": "%"}, {"measurement": "% Enzyme Activity (relative to DMSO controls)", "setting": "panel of 391 kinases [23]", "result": 97.76, "unit": "%"}, {"measurement": "remaining activity at 1 µM", "setting": "panel of 391 kinases [23]; [28]", "result": 100, "unit": "%"}, {"measurement": "% Enzyme Activity (relative to DMSO controls)", "setting": "panel of 391 kinases [24]", "result": 105.55, "unit": "%"}, {"measurement": "remaining activity at 1 µM", "setting": "panel of 391 kinases [24]; [28]", "result": 109, "unit": "%"}, {"measurement": "% Enzyme Activity (relative to DMSO controls)", "setting": "panel of 391 kinases [25]", "result": 106.05, "unit": "%"}, {"measurement": "remaining activity at 1 µM", "setting": "panel of 391 kinases [25]; [28]", "result": 108, "unit": "%"}, {"measurement": "% Enzyme Activity (relative to DMSO controls)", "setting": "panel of 391 kinases [26]", "result": 101.97, "unit": "%"}, {"measurement": "remaining activity at 1 µM", "setting": "panel of 391 kinases [26]; [28]", "result": 105, "unit": "%"}, {"measurement": "% Enzyme Activity (relative to DMSO controls)", "setting": "panel of 391 kinases [27]", "result": 89.30, "unit": "%"}, {"measurement": "remaining activity at 1 µM", "setting": "panel of 391 kinases [27]; [28]", "result": 90.7, "unit": "%"}]}]}
